Laboratory results reported in paper PMC5669199, “CM352 Reduces Brain Damage and Improves Functional Recovery in a Rat Model of Intracerebral Hemorrhage” (Journal of the American Heart Association: Cardiovascular …, 2017).
pEC50, pIC50: −log10 of the molar value.

Columns and labels:
[1] = tested on: tissue‐type plasminogen activator–induced fibrinolysis in rat whole blood; assay: Whole blood clot formation and lysis assay (ROTEM thromboelastometry), rat blood; format: biochemical
Procedure: Citrated blood samples from (n=4) rats (Sprague Dawley) and (n=16) mice ([…], Harlan Iberica) were assayed with a ROTEM analyzer (Pentapharm GmbH, Munich, Germany) as previously described.20 In a prewarmed cuvette and holder we pipetted 1 μL tissue-type plasminogen activator (150 000 U/mL), 20 μL Start-tem reagent (Pentapharm GmbH), 20 μL In-tem reagent (Pentapharm GmbH), 3 μL DMSO (SIGMA) or test compounds in DMSO, and 300 μL prewarmed citrated blood. The cup holder containing the sample mixture was placed immediately on the appropriate channel. Measurements were recorded for 60 minutes to allow clot formation and lysis, and results are expressed as effective concentration to delay lysis time by 50%.

[2] = target: T1, MMP‐2 (Homo sapiens, UniProt P08253); assay: MMP enzyme activity assay; format: biochemical; conditions: read-out: MMP Inhibitory Activity (IC50), MMP‐2
T1 construct: GenScript (contract testing)
T1 sequence (P08253 110-660): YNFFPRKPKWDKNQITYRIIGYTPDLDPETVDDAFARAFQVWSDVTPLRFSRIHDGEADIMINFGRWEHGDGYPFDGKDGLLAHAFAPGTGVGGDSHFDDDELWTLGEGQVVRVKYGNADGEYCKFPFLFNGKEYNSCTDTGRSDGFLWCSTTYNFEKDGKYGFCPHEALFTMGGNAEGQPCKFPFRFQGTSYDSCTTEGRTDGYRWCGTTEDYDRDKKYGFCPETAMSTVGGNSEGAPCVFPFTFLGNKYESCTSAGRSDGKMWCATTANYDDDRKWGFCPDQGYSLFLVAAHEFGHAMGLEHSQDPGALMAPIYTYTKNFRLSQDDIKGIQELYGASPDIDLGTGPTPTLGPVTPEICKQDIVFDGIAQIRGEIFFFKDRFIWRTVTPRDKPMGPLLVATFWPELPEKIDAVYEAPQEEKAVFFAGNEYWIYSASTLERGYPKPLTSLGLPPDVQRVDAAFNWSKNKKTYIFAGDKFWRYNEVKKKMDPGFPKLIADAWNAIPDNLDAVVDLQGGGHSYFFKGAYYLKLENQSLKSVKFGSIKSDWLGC
Procedure: (§1) Protease stock solutions (10 mmol/L) were diluted with assay buffer to make final test solutions containing no more than 2.0% DMSO. The samples were dispensed into plates; substrate was added and read with PHERAstar PLUS (BMG Labtech, Ortenberg, Germany) plate reader.

[3] = target: T2, MMP‐7 (Homo sapiens, UniProt P09237); assay: MMP enzyme activity assay; format: biochemical; conditions: read-out: MMP Inhibitory Activity (IC50), MMP‐7
T2 construct: GenScript (contract testing)
T2 sequence (P09237 95-267): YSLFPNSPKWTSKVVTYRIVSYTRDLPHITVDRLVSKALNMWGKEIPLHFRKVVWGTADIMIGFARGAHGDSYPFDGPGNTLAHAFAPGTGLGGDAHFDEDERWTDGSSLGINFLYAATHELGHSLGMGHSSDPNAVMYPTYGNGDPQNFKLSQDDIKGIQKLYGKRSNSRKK
Procedure: as §1

[4] = target: T3, MMP‐9 (Homo sapiens, UniProt P14780); assay: MMP enzyme activity assay; format: biochemical; conditions: read-out: MMP Inhibitory Activity (IC50), MMP‐9
T3 construct: GenScript (contract testing)
Procedure: as §1

[5] = tested on: rat model of collagenase‐induced ICH; assay: Cylinder test (laterality index) in ICH rat model; format: in vivo; conditions: 24 hours and 14 days, all P<0.01 vs control
Procedure: Following STAIR criteria, animal models must show neurological and functional deficits in line with the produced lesion. The model of collagenase‐induced hemorrhage primarily damages the striatum, producing a small forelimb paresis contralateral to the lesion. Sensorimotor deficits after ischemic insult were assessed using the cylinder test, as previously described.23 This test evaluates limb asymmetry during the exploratory activity. Each animal was put in a cylinder with a 20‐cm‐diameter transparent base. A video camera was located under this transparent cylinder for recording the vertical exploratory movements of the animal with its anterior limbs for 2 to 10 minutes, depending on movement grade. For image recording and analysis, VirtulDub software was used. Analyzed behaviors were the numbers of times that the animal touched the cylinder wall and independent use of each limb in contact with the cylinder wall in each upward movement. The laterality index was calculated (the number of times that the animal touched the cylinder with the right leg during the ascendant movement by the number of times that the animals touched with each leg). […] An experienced investigator, blind to treatment and neuroimaging data, analyzed the behavioral tests.

[6] = tested on: mouse model of tail bleeding; parameters: method as in PMID 25686022; conditions: CM352 0.01 mg/kg; cited from earlier work

T3 sequence (P14780 94-707, species assumed): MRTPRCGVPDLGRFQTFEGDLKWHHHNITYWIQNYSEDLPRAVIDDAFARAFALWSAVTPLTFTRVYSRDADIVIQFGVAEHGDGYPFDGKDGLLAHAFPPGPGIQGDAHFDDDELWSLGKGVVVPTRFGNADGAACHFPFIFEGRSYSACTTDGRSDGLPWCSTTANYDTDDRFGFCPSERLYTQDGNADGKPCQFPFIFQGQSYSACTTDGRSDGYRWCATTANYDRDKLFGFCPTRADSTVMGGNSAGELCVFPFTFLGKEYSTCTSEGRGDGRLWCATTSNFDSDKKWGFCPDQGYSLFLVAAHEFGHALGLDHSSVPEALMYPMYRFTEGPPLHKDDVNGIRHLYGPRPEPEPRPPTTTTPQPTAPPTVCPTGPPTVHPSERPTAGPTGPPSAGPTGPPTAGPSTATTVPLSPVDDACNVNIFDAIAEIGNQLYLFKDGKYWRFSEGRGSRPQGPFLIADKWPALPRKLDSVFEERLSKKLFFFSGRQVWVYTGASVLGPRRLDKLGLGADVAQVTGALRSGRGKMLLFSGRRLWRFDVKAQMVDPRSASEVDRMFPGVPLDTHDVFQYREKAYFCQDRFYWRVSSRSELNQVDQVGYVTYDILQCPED

Compound: CNC(=O)c1ccc(Oc2ccc(S(=O)(=O)[C@]3(C(=O)NO)CCC4(CCNCC4)C3)cc2)cc1 [CM352, 4‐[4‐[[(3R)‐3‐(Hydroxycarbamoyl)‐8‐azaspiro[4.5]decan‐3‐yl]sulfonyl]phenoxy]‐N‐methylbenzamide]
- pEC50 ([1]; rat whole blood, tPA‐induced fibrinolysis, ROTEM, read-out: effective concentration to delay lysis time by 50%): 5.43
- coagulation activation and clot firmness ([1]; thromboelastometry assay, whole blood): without changes in coagulation activation and clot firmness
- pIC50 [2]: 8.08
- pIC50 [3]: 4.80
- pIC50 [4]: 8.00
- sensorimotor recovery (laterality index) ([5]; 1 mg/kg 3 hours after collagenase): better sensorimotor recovery
- sensorimotor recovery (laterality index) ([5]; 1 mg/kg iv 1 hour after collagenase): better sensorimotor recovery
- antihemorrhagic efficiency [6]: more potent agent
